Experimental data taken from patent US12303473B1 (priority 2023, dated 2025).
Read-outs that look alike come from different tables or passages of the source.

How the values were obtained:
[1] = test system: adult patients with TRD; conditions: for depression rating based on mean PHQ-9 depression scores: "severe" at baseline, HBr after 2 weeks; for side effect: insomnia / side effect: anxiety / side effect: gastrointestinal upset: in vivo
Excerpt: In the regular course of Applicants' general outpatient psychiatry practice, Applicants see many patients who suffer from Major Depressive Disorder (MDD) and may not have responded to two or more oral antidepressant medications. Applicants routinely administer the brief and commonly used Patient Health Questionnaire-9 (PHQ-9) scale before starting a new treatment, two weeks after starting treatment to measure initial response, and periodically thereafter.
Once-daily, XL bupropion HCl received FDA approval for the treatment of MDD in 2003 and for Seasonal Affective Disorder (SAD) in 2006.
The following study protocol was approved by the WCG-IRB institutional ethics committee and conducted in accordance with principles set forth in the Helsinki Declaration. […] The PHQ-9 is a reliable and valid clinical and research tool that measures functionality and depression severity, whereby scores of 5, 10, 15, and 20 correspond to mild, moderate, moderately severe, and severe depression and a 5-point change is considered clinically meaningful. Statistical analysis was performed using a within-subject, 2-tailed t-test with a significance level of p<0.05.

[2] = test system: patients having Major Depressive Disorder who also suffer from Treatment Resistant Depression; test: Example 2: phase III double-blind active control Treatment Resistant Major Depressive Disorder study (MADRS), sequential HCl then HBr; format: in vivo, human; conditions: N=50
Protocol: A phase III double-blind study is conducted on a subset of patients having Major Depressive Disorder who also suffer from Treatment Resistant Depression. Exclusion criteria for this study are any patients suffering from seizures, known hypersensitivity to bupropion, eating disorders, schizophrenia or bipolar disorder. Inclusion criteria for this study are adult patients ages 18 through 64 who have taken two oral antidepressants of adequate dose and duration in the current episode of Major Depressive Disorder. The study includes a total of fifty patients (N=50). Initially, all patients are given a two-week washout from a previous oral antidepressant or are not currently taking an oral antidepressant. The patients are administered once daily bupropion HCl XL 150 mg, which is flexibly dosed to 300 mg by day 4 and 450 mg by day 11, to the extent required for treatment response and/or as tolerated. The treatment is continued for a total of six weeks. After six weeks, there is a five-day bupropion HCl XL washout. Next, the patients are administered once daily bupropion HBr XL 174 mg, which is flexibly dosed to 348 mg by day 4 and 522 mg by day 11, to the extent required for treatment response and/or as tolerated. This part of the study is continued for a total of six weeks. Measures are assessed based on weekly changes on the Montgomery Asberg Depression Rating Scale (MADRS) from baseline on bupropion HCl compared to bupropion HBr. Also, side effects leading to discontinuation on bupropion HCl compared to bupropion HBr are considered. The primary endpoint of the study is significant change in MADRS by week 6 on bupropion HBr compared to bupropion HCl. A secondary endpoint is statistically significant change in MADRS by week 2 on bupropion HBr compared to bupropion HCl.

[3] = test system: patients having Major Depressive Disorder who also suffer from Treatment Resistant Depression; test: Example 3: study similar to Example 2 with two arms of 25 patients; format: in vivo, human; conditions: 25 patients per arm
Protocol: A similar study to that of Example 2 is also conducted, except that the 50 patients are broken into two arms—one arm of 25 patients taking bupropion HCl XL and the other arm of 25 patients taking bupropion HBr XL.

[4] = APLENZIN 348 mg once-daily, 10-day dosing; cited from earlier work

| Compound | depression rating based on mean PHQ-9 depression scores ([1]; 30 adult TRD patients) | mean PHQ-9 score on XL bupropion HBr ([1]; 30 adult TRD patients, after 2 weeks on mean dose 348 mg/day (range 174-522 mg/day) after direct switch from XL bupropion HCl, t=-8.63, p<0.00001 vs HCl) | change in PHQ-9 questions (1), (3), (4), (5) and (7) on XL bupropion HBr compared to XL bupropion HCl ([1]; all patients in the study of Example 1, each question rated 0 to 3) | side effect: insomnia ([1]; both, human) [patients] | side effect: anxiety [1] | side effect: gastrointestinal upset [1] | patient preference over the combination of bupropion HCl plus dextromethorphan ([1]; subgroup of five patients who had previously failed the combination, due to improved antidepressant efficacy) | side effects leading to discontinuation compared to bupropion HCl [2] | efficacy in TRD (MADRS change) compared to bupropion HCl ([2]; 174-522 mg once daily, six weeks) | speed of effect compared to bupropion HCl ([2]; MADRS by week 2) | results of two-arm study compared to bupropion HCl XL [3] | peak plasma concentration and area under the curve vs bupropion HCl extended-release 300 mg (bioequivalence) [4] | mean PHQ-9 score on XL bupropion HCl ([1]; 30 adult TRD patients, mean dose 300 mg/day (range 150-450 mg/day), mean duration 88.8 weeks, PHQ-9 range 0-27, baseline 20.9±4.3) | side effect: anxiety ([1]; both, human) [patients] | side effect: gastrointestinal upset ([1]; both, human) [patients] |
| --- | --- | --- | --- | --- | --- | --- | --- | --- | --- | --- | --- | --- | --- | --- | --- |
| Br.CC(NC(C)(C)C)C(=O)c1cccc(Cl)c1 (centres unmarked) [XL bupropion HBr, bupropion hydrobromide] | mild (Scores of 5-9 indicate mild depression) | 6.4±5.0 | improving by at least one point | 3 | resolved | resolved | All five patients in this subgroup preferred once-daily XL bupropion HBr | fewer side effects leading to discontinuation | more effective | works faster | same as in Example 2 | equivalent |  |  |  |
| CC(NC(C)(C)C)C(=O)c1cccc(Cl)c1.Cl (racemic) [XL bupropion HCl, (±)-1-(3-chlorophenyl)-2-[(1,1-dimethylethyl)amino]-1-propanone hydrochloride] | moderately severe (Scores of 15-19 indicate moderately severe depression) |  |  | 21 |  |  |  |  |  |  |  |  | 15.3±5.3 | 19 | 2 |
